In test [1] the target is T1, EGFR del746-750 T790M (Homo sapiens, UniProt P00533, DEL746-750/T790M).
T1 construct: purchased Carna Biosciences 08-528
Put plainly: EGFR del746-750 T790M biochemical assay (Caliper mobility shift). The conditions noted are these: 5 μM ATP; apparent Ki (Morrison fit) converted by Cheng-Prusoff, Km of ATP 2.1 μM; read-out: EGFR(T790M/d746-750) Ki. An outline of the steps: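 Kinase reactions ran 30 min at room temperature (22 °C), then were stopped with 80 mM EDTA. Phosphorylated product and substrate were separated electrophoretically and quantified by Caliper mobility shift.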

For test [2], the target named is T2, phosphor-EGFR in H1975(L585R/T790M) mutant EGFR expressing cells (Homo sapiens, UniProt P00533, L858R/T790M).
T2 construct: host or cells: NCI-H1975
Put plainly: H1975 pEGFR MSD cellular assay. In kind it is cell-based. The note with it: NCI-H1975 cells, serum starved, 1 hour compound incubation, pEGFR Tyr1068 MSD; read-out: HI975 pEGFR EC50. In short, it runs like this: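 NCI-H1975 cells, 30,000/well, serum-starved overnight, then treated 1 hour at 37° C with serially diluted compounds in serum-free medium (0.5% DMSO). Lysates captured on anti-phospho-EGFR plates overnight at 4° C, detected with SULFO-TAG anti-total EGFR by electrochemiluminescence. Inhibition vs untreated controls; EC50 from 4-parameter logistic fit.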

The target in test [3] is T3, EGFR T790M L858R (Homo sapiens, UniProt P00533, L858R/T790M).
T3 construct: purchased Life Technologies PV4879
Put plainly: EGFR T790M L858R biochemical assay (Caliper mobility shift). The conditions noted are these: 5 μM ATP; apparent Ki (Morrison fit) converted by Cheng-Prusoff, Km of ATP 1.3 μM. An outline of the steps:
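Reactions run 30 minutes at room temperature (22 °C), stopped with 80 mM EDTA. Phosphorylated product and substrate separated electrophoretically and quantified by Caliper mobility shift.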

For test [4], the system named is H1975 (EGFR T790M/L858R) cell proliferation. Put plainly: H1975 proliferation assay (Cell Titer-Glo). It is filed as cell-based. The conditions noted are these: Homo sapiens, NCI-H1975, 72 h, NCI-H1975 cells, 72 hour incubation, read-out: H1975 antiproliferative EC50. As to the method: H1975 Proliferation Assays
All cell culture reagents were purchased from Invitrogen/Gibco. Cells are cultured at 37° C. at 5% CO2 and split as recommended by ATCC.
For orientation: Cellular ATP, detected with luciferase, serves as a proxy for viable cell number.

Experimental findings from patent US9951064B2, “Azaindazole compounds as inhibitors of T790M containing EGFR mutants” (Genentech, Inc., priority 2013, dated 2018) are described below.

SMILES strings stand for the structures. Bounds are passed on as bounds.

T2 sequence (P00533 25-1210 T790M/L858R): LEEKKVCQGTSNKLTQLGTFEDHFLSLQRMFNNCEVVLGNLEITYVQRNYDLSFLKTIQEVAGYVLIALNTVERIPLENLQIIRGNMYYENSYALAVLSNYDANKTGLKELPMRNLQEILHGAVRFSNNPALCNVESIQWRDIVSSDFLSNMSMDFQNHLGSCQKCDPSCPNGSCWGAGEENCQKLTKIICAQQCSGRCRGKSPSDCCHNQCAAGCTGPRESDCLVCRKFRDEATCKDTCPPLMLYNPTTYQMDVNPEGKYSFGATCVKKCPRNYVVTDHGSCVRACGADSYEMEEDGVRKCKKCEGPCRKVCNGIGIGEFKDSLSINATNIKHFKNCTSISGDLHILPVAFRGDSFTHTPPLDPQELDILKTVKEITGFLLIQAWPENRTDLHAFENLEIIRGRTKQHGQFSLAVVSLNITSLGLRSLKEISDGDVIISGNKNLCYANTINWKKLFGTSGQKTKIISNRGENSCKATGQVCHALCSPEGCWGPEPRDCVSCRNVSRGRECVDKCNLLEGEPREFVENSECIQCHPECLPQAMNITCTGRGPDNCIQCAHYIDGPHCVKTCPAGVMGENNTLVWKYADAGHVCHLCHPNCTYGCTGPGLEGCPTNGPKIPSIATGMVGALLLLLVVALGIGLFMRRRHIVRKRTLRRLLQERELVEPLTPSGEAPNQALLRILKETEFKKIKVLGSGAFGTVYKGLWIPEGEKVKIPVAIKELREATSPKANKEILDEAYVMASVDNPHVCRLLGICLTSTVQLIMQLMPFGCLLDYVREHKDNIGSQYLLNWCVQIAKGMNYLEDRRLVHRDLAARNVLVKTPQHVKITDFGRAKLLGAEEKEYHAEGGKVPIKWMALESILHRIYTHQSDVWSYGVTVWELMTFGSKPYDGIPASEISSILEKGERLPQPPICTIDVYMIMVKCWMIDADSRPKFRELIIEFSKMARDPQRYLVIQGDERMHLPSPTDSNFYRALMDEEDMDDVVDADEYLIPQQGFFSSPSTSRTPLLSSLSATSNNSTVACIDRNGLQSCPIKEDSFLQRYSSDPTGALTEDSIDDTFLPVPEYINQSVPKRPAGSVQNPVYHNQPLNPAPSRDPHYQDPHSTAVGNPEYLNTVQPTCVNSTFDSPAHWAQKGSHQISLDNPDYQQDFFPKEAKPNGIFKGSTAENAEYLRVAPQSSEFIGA
T3 sequence (P00533 25-1210 T790M/L858R): as above
T1 sequence (P00533 with tags, fused parts or gaps DEL746-750/T790M limits assumed): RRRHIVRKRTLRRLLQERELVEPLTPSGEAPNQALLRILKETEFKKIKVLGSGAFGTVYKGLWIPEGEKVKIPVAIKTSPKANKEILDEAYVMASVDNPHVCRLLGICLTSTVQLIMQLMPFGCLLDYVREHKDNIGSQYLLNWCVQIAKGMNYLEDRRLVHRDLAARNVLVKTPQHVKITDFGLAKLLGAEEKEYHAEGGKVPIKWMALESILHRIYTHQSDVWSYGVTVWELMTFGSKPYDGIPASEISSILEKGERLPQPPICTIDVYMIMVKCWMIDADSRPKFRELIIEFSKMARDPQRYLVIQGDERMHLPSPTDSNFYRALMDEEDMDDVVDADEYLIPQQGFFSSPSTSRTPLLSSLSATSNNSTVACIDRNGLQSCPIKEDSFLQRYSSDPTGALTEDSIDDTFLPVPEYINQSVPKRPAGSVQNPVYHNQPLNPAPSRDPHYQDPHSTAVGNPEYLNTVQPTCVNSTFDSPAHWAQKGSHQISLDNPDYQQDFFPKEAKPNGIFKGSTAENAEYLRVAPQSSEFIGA

For `CCC(C)n1nc(N2C[C@@H](CO)NC2=O)c2cnc(Nc3ccnc(N4CCC(C)(O)CC4)n3)cc21` (mixture of isomers) [Example 176, (4S)-1-(1-sec-Butyl-6-(2-(4-hydroxy-4-methylpiperidin-1-yl)pyrimidin-4-ylamino)-1H-pyrazolo[4,3-c]pyridin-3-yl)-4-(hydroxymethyl)imidazolidin-2-one], the Ki was 12.1 nM in test [1] and 3.3 nM in test [3]. Also, the EC50 – broadly, the concentration giving half of the maximal effect – in test [2] was 3980 nM; in test [4] it was above 10000 nM.
In the case of `CC(C)n1nc(N2CCO[C@@H](CO)C2)c2cnc(Nc3ccnc(N4CCC(O)C(F)C4)n3)cc21` (mixture of isomers) [Example 75, cis-3-Fluoro-1-(4-(3-((R)-2-(hydroxymethyl)morpholino)-1-isopropyl-1H-pyrazolo[4,3-c]pyridin-6-ylamino)pyrimidin-2-yl)piperidin-4-ol], the Ki stood at 10.3 nM in test [1] and 4.1 nM in test [3]. The results for the EC50 in test [2] and in test [4] were 1330 nM and 7820 nM, respectively.
Turning to `CCS(=O)(=O)n1cc(-c2nccc(Nc3cc4c(cn3)c(N3CC(C(=O)N(C)C)C3)nn4C(C)C)n2)cn1` [Example 17, 1-(6-(2-(1-(Ethylsulfonyl)-1H-pyrazol-4-yl)pyrimidin-4-ylamino)-1-isopropyl-1H-pyrazolo[4,3-c]pyridin-3-yl)-N, N-dimethylazetidine-3-carboxamide], the Ki worked out at 0.8 nM in test [1] and 0.7 nM in test [3]. Also, the EC50 worked out at 19.2 nM in test [2] and 236 nM in test [4].
On the same counts, the results for `CC(C)n1nc(N2CCC2)c2cnc(Nc3ccnc(-c4cnn(S(=O)(=O)C5CC5)c4)n3)cc21` [Example 54, 3-(azetidin-1-yl)-N-(2-(1-(cyclopropylsulfonyl)-1H-pyrazol-4-yl)pyrimidin-4-yl)-1-isopropyl-1H-pyrazolo[4,3-c]pyridin-6-amine] are 0.5 nM, 0.7 nM, 17.9 nM and 158 nM.
On the same counts, the results for `Cc1cn[nH]c1-c1nn(C(C)C)c2cc(Nc3ccnc(N4CCC(O)C(C)(C)C4)n3)ncc12` (centres unmarked) [Example 10, 1-(4-((1-Isopropyl-3-(4-methyl-1H-pyrazol-5-yl)-1H-pyrazolo[4,3-c]pyridin-6-yl)amino)pyrimidin-2-yl)-3,3-dimethylpiperidin-4-ol] are 32.4 nM, 7.5 nM, 349 nM and 1710 nM.
For `CO[C@H]1CCN(c2nccc(Nc3cc4c(cn3)c(N3CC5(COC5)C3)nn4C(C)C)n2)C[C@H]1F` (racemic) [Example 103, [2-((cis)-(±)-3-Fluoro-4-methoxypiperidin-1-yl)pyrimidin-4-yl]-[1-isopropyl-3-(2-oxa-6-azaspiro[3.3]hept-6-yl)-1H-pyrazolo[4,3-c]pyridin-6-yl]amine] the same measures were 3.9 nM, 1.1 nM, 23.1 nM and 248 nM.
Consider `CC(C)n1nc(N2CC(C(=O)N3CC4CCC(C3)O4)C2)c2cnc(Nc3ccnc(-c4cnn(S(=O)(=O)C5CC5)c4)n3)cc21` [Example 168, 8-Oxa-3-azabicyclo[3.2.1]octan-3-yl(1-(6-(2-(1-(cyclopropylsulfonyl)-1H-pyrazol-4-yl)pyrimidin-4-ylamino)-1-isopropyl-1H-pyrazolo[4,3-c]pyridin-3-yl)azetidin-3-yl)methanone], for which the figures for the Ki in test [1] and in test [3] were 1.2 nM and 1.5 nM, respectively. Besides, the results for the EC50 in test [2] and in test [4] were 25.5 nM and 283 nM, respectively.
On the same counts, the results for `CCC(C)n1nc(N2CCNC2=O)c2cnc(Nc3ccnc(-c4cnn(S(=O)(=O)C5CC5)c4)n3)cc21` (centres unmarked) [Example 25, 1-(1-(sec-Butyl)-6-((2-(1-(cyclopropylsulfonyl)-1H-pyrazol-4-yl)pyrimidin-4-yl)amino)-1H-pyrazolo[4,3-c]pyridin-3-yl)imidazolidin-2-one] are 2.5 nM, 1 nM, 38.3 nM and 138 nM.
For `CC(C)n1nc(N2CCOC2=O)c2cnc(Nc3ccnc(-c4cnn(S(=O)(=O)C5CC5)c4)n3)cc21` [Example 72, 3-(6-(2-(1-(Cyclopropylsulfonyl)-1H-pyrazol-4-yl)pyrimidin-4-ylamino)-1-isopropyl-1H-pyrazolo[4,3-c]pyridin-3-yl)oxazolidin-2-one] the same measures were 0.5 nM, 0.7 nM, 28.1 nM and 206 nM.
On the same counts, the results for `CC(C)n1nc(N2CC(C(=O)NCC(F)(F)F)C2)c2cnc(Nc3ccnc(-c4cnn(S(=O)(=O)C5CC5)c4)n3)cc21` [Example 165, 1-(6-(2-(1-(Cyclopropylsulfonyl)-1H-pyrazol-4-yl)pyrimidin-4-ylamino)-1-isopropyl-1H-pyrazolo[4,3-c]pyridin-3-yl)-N-(2,2,2-trifluoroethyl)azetidine-3-carboxamide] are 1.9 nM, 1.9 nM, 95.6 nM and 193 nM.
As for `CC(C)n1nc(NC(=O)C(C)(C)O)c2cnc(Nc3ccnc(-c4cnn(S(=O)(=O)C5CC5)c4)n3)cc21` [Example 116, N-(6-(2-(1-(Cyclopropylsulfonyl)-1H-pyrazol-4-yl)pyrimidin-4-ylamino)-1-isopropyl-1H-pyrazolo[4,3-c]pyridin-3-yl)-2-hydroxy-2-methylpropanamide], the figures for the Ki in test [1] and in test [3] were 2 nM and 2.6 nM, respectively. Besides, the EC50 in test [2] came to 629 nM; in test [4] it was 2080 nM.
For `CC(C)n1nc(N2CC(C(=O)N3CC[C@H](CO)C3)C2)c2cnc(Nc3ccnc(-c4cnn(S(=O)(=O)C5CC5)c4)n3)cc21` [Example 166, (S)-(1-(6-(2-(1-(cyclopropylsulfonyl)-1H-pyrazol-4-yl)pyrimidin-4-ylamino)-1-isopropyl-1H-pyrazolo[4,3-c]pyridin-3-yl)azetidin-3-yl)(3-(hydroxymethyl)pyrrolidin-1-yl)methanone] the same measures were 0.7 nM, 0.7 nM, 177 nM and 1160 nM.
For `CC(C)n1nc(N2CC[S+]([O-])CC2)c2cnc(Nc3ccnc(-c4cnn(S(=O)(=O)C5CC5)c4)n3)cc21` [Example 110, 4-(6-((2-(1-(Cyclopropylsulfonyl)-1H-pyrazol-4-yl)pyrimidin-4-yl)amino)-1-isopropyl-1H-pyrazolo[4,3-c]pyridin-3-yl)thiomorpholine 1-oxide] the same measures were 1.1 nM, 1.7 nM, 162 nM and 835 nM.
On to `CCC(C)n1nc(N2CCNC2=O)c2cnc(Nc3ccnc(N4CC[C@H](OC)[C@H](F)C4)n3)cc21` (mixture of isomers) [Example 98, 1-{1-(sec-Butyl)-6-[2-((3R,4S)-3-fluoro-4-methoxypiperidin-1-yl)pyrimidin-4-ylamino]-1H-pyrazolo[4,3-c]pyridin-3-yl}imidazolidin-2-one], for which the Ki in test [1] amounted to 1.8 nM; in test [3] it was 1 nM. Besides, the half-maximal effective concentration (EC50) in test [2] was found to be 39.5 nM; in test [4] it was 256 nM.
Consider `CC(C)n1nc(N2CCC3(CNC(=O)C3)C2)c2cnc(Nc3ccnc(-c4cnn(S(=O)(=O)C5CC5)c4)n3)cc21` (centres unmarked) [Example 115, 7-(6-((2-(1-(Cyclopropylsulfonyl)-1H-pyrazol-4-yl)pyrimidin-4-yl)amino)-1-isopropyl-1H-pyrazolo[4,3-c]pyridin-3-yl)-2,7-diazaspiro[4.4]nonan-3-one], for which the Ki is 0.9 nM in test [1] and 1.1 nM in test [3]. Also, the EC50 in test [2] was determined as 221 nM; in test [4], 1790 nM.
For `CC[C@H](C)n1nc(N2CC3(COC3)C2)c2cnc(Nc3ccnc(N4CC[C@](C)(O)[C@H](F)C4)n3)cc21` (relative stereo) [Example 65, (3R*,4S*)-1-{4-[1-((S)-sec-Butyl)-3-(2-oxa-6-azaspiro[3.3]hept-6-yl)-1H-pyrazolo[4,3-c]pyridin-6-ylamino]pyrimidin-2-yl}-3-fluoro-4-methylpiperidin-4-ol] the same measures were 9.6 nM, 3.6 nM, 126 nM and 874 nM.
For `CCC(C)n1nc(N2CCNC2=O)c2cnc(Nc3ccnc(N4CC[C@H](O)[C@H](F)C4)n3)cc21` (stereo partly drawn) [Example 195, 1-(1-(sec-Butyl)-6-((2-((3R,4S)-3-fluoro-4-hydroxypiperidin-1-yl)pyrimidin-4-yl)amino)-1H-pyrazolo[4,3-c]pyridin-3-yl)imidazolidin-2-one] the same measures were 3.1 nM, 1 nM, 44.9 nM and 208 nM.
